Measured values taken from US6639023B1, “Fluorophenyl resin compounds” (Aventis Pharmaceuticals Inc., priority 1998, dated 2003).

Target: Factor Xa (Homo sapiens, UniProt P00742)
Experiment: IC50 against Factor Xa
Assay type: biochemical

Sequence of Factor Xa (P00742 235-488 limits assumed): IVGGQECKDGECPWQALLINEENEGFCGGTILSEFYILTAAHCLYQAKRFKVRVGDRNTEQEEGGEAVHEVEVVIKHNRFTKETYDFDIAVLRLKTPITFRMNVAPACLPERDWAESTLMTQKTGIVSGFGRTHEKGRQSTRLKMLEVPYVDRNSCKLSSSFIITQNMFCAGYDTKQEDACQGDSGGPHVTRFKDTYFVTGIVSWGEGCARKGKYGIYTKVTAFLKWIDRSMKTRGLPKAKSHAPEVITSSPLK
Sequence of Factor Xa (P00742 41-179 partner limits assumed): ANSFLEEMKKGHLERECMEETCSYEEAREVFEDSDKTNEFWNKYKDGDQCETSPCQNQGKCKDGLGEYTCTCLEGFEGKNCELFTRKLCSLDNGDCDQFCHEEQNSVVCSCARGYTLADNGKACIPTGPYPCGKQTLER

IC50: < 500 nM
Structure (SMILES): O=C1[C@@H](NS(=O)(=O)c2cc3ccc(Cl)cc3s2)CCN1Cc1cc2ncccc2[nH]1 [Example 24]
